In PMC9974488, “Probing coenzyme A homeostasis with semisynthetic biosensors” (Nature Chemical Biology, 2022):

Key:
[1] = molecular target: T1, pantothenate kinase (ecPanK) (Escherichia coli, UniProt P0A6I3); test: biochemical; parameters: fluorescence polarization competition against 50 nM TMR-TAZ with 20 uM ecPanK, half-maximal c50
T1 construct: gene coaA; ecPanK WT, N-terminal Strep-tag, C-terminal Hisx10
T1 sequence (P0A6I3 1-316): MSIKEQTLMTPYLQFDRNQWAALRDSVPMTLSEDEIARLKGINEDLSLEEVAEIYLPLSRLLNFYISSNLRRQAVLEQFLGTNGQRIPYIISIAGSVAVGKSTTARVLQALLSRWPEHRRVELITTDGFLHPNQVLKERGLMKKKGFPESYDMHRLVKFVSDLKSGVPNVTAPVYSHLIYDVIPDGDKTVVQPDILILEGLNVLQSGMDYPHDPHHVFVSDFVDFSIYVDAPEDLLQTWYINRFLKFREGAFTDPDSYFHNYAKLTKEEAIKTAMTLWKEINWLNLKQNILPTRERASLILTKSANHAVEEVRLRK
Protocol: The binding affinity (c50) of different ecPanKs for CoA and AcCoA were determined by a fluorescence polarization competition assay against TMR-TAZ. 50 nM TMR-TAZ and 20 μM ecPanKs, except ecPanK^D127A,F252Y,L277W (100 μM), were titrated against CoA or AcCoA concentrations ranging from 64 nM to 5 mM in PBS supplemented with 0.5 mg ml^−1 BSA and 50 mM HEPES. Assays were performed in non-binding black 96-well plates with a final volume of 50 μl with excitation at 520 nm (bandwidth 20 nm) and emission 600 nm (bandwidth 20 nm). Obtained FP values were averaged and fitted to equation (4) to estimate the c50 values using OriginPro 2021.4 FP=FP0+FPs−FP0/1+c50/[L] Where FP0 is the fluorescence polarization of the fluorophore with ecPanKs in the absence of CoA or AcCoA (bound fluorophore), FPs is the fluorescence polarization of the fluorophore in the presence of CoA or AcCoA (free fluorophore) c50 is the half-maximal effective concentration, and [L] is the concentration of CoA or AcCoA. […] Representative in-gel fluorescence scan after SDS-PAGE (n = 3 independent experiments) of Halo-SiR labeled sensor proteins, Lane 1: protein marker, lane 2: CoA-Snifit^V97T, lane 3: CoA-Snifit^G41, lane 4: CoA-Snifit^G41S, lane 5: CoA-Snifit^G41N. c. […] Fluorescence polarization responses (FP, mean ± s.d., n = 3 independent replicates) of 50 nM TMR-TAZ as a function of ecPanK^WT concentration in PBS. e. […]

[2] = molecular target: T1, pantothenate kinase (ecPanK); test: fluorescence polarization competition against TMR-TAZ; format: binding
[3] = molecular target: T2, pantothenate kinase (ecPanK) (Escherichia coli, UniProt P0A6I3, D127A/F252Y/L277W); test: fluorescence polarization; format: binding
T2 construct: gene coaA; ecPanK D127A,F252Y,L277W

[4] = molecular target: T1, pantothenate kinase (ecPanK); test: fluorescence polarization, purified protein titrated against […] TMR-TAZ; format: binding

SMILES | IC50 [1] [µM] | fluorescence polarization competition against TMR-TAZ [2] | Kd [3] [µM] | Kd [4] [µM]
CC(C)(COP(=O)(O)OP(=O)(O)OC[C@H]1O[C@@H](n2cnc3c(N)ncnc32)[C@H](O)[C@@H]1OP(=O)(O)O)[C@@H](O)C(=O)NCCC(=O)NCCS [Coenzyme A] | 214 ± 19.2 | CoA competes with TMR-TAZ for binding to ecPanK (Extended Data Fig. 1e) | – | –
CC(NC(=O)c1ccccc1C(F)(F)F)c1nnc(SCc2ccc(F)cc2)n1Cc1ccc(COC(=O)NCCOCCOCCNC(=O)c2ccc(C(=O)O)c(-c3c4ccc(=[N+](C)C)cc-4oc4cc(N(C)C)ccc34)c2)nc1 (centres unmarked) [compound 1, TMR-TAZ] | – | – | 21.6 ± 3.7 | 1.2 ± 0.2
CC(=O)SCCNC(=O)CCNC(=O)[C@H](O)C(C)(C)COP(=O)(O)OP(=O)(O)OC[C@H]1O[C@@H](n2cnc3c(N)ncnc32)[C@H](O)[C@@H]1OP(=O)(O)O [acetyl-CoA] | 1420 ± 315 | – | – | –
